Measured values as given in the NIST ThermoML archive (doi:10.1021/acs.jced.8b01046).
Values joined by “and” are separate entries in the source; they are usually repeats but may differ in a detail not shown here. Identical values can stand only once. ± gives the expanded uncertainty stated by the source.

Assays:
[1] = Liquid; for mass density: Vibrating tube method
[2] = wn = mass fraction of the nth substance listed; settings: 102 kPa, Liquid, Vibrating tube method

CCCCCCCC(=O)OCC(COC(=O)CCCCCCC)OC(=O)CCCCCCC [1,2,3-propanetriol trioctanoate]
[1]
Settings | mass density [kg/m3] | vapor or sublimation pressure [kPa]
293.15 K, 102 kPa | 952.7 ± 3.8 | –
298.15 K, 102 kPa | 948.9 ± 3.8 | –
298.15 K, 120 kPa | 949.9 ± 3.8 | –
298.15 K, 9830 kPa | 955.5 ± 3.8 | –
298.15 K, 20100 kPa | 961.3 ± 3.9 | –
298.15 K, 30020 kPa | 966.6 ± 3.9 | –
298.15 K, 40050 kPa | 971.9 ± 3.9 | –
298.15 K, 50040 kPa | 977.1 ± 3.9 | –
303.15 K, 102 kPa | 944.9 ± 3.8 | –
313.15 K, 102 kPa | 937.4 ± 3.8 | –
333.15 K, 102 kPa | 922.5 ± 3.7 | –
353.15 K, 102 kPa | 907.7 ± 3.6 | –
403.2 K, Transpiration method | – | 0.0002069 ± 2.2e-05
408.2 K, Transpiration method | – | 0.0003133 ± 3.4e-05
413.2 K, Transpiration method | – | 0.0004698 ± 5.1e-05
423.2 K, Transpiration method | – | 0.001006 ± 0.00011
433.2 K, Transpiration method | – | 0.001977 ± 0.00021
443.2 K, Transpiration method | – | 0.004016 ± 0.00043
448.2 K, Transpiration method | – | 0.005491 ± 0.00059

CCCCCCCCCC(=O)OCC(COC(=O)CCCCCCCCC)OC(=O)CCCCCCCCC [1,2,3-propanetriyl tridecanoate]
[1]
Settings | mass density [kg/m3] | vapor or sublimation pressure
293.15 K, 102 kPa | 921.6 ± 3.7 | –
298.15 K, 102 kPa | 917.9 ± 3.7 | –
303.15 K, 102 kPa | 913.6 ± 3.7 | –
313.15 K, 102 kPa | 906.2 ± 3.7 | –
333.15 K, 102 kPa | 891 ± 3.6 | –
348.5 K, Langmuir technique | – | 1.39e-08 ± 5.6e-09 kPa and 1.36e-08 ± 5.5e-09 kPa
353.15 K, 102 kPa | 875.9 ± 3.6 | –
353.48 K, Langmuir technique | – | 2.94e-08 ± 1.2e-08 kPa and 2.9e-08 ± 1.2e-08 kPa
358.38 K, Langmuir technique | – | 5.99e-08 ± 2.4e-08 kPa
363.18 K, Langmuir technique | – | 1.19e-07 ± 4.8e-08 kPa and 1.2e-07 ± 4.9e-08 kPa
367.8 K, Langmuir technique | – | 2.27e-07 ± 9.2e-08 kPa
367.81 K, Langmuir technique | – | 2.23e-07 ± 9.1e-08 kPa

CCCCCCCCCC(=O)OCC(COC(=O)CCCCCCCCC)OC(=O)CCCCCCCCC [1,2,3-propanetriyl tridecanoate] + CCCCCCCCO
mass density [kg/m3], [2]
Settings | 293.15 K | 298.15 K | 303.15 K | 313.15 K | 333.15 K | 353.15 K
w1 = 0.016 | 826.5 ± 3.3 | 823.1 ± 3.3 | 819.5 ± 3.3 | 812.6 ± 3.3 | 798.6 ± 3.2 | 783.8 ± 3.1
w1 = 0.0385 | 828.7 ± 3.3 | 825.1 ± 3.3 | 821.6 ± 3.3 | 814.7 ± 3.3 | 800.7 ± 3.2 | 785.9 ± 3.2
w1 = 0.0772 | 832.5 ± 3.3 | 829 ± 3.3 | 825.4 ± 3.3 | 818.5 ± 3.3 | 804.3 ± 3.2 | 789.5 ± 3.2
w1 = 0.1287 | 837.4 ± 3.4 | 833.9 ± 3.3 | 830.3 ± 3.3 | 823.3 ± 3.3 | 809.1 ± 3.2 | 794.4 ± 3.2
w1 = 1 | 921.6 ± 3.7 | 917.9 ± 3.7 | 913.6 ± 3.7 | 906.2 ± 3.7 | 891 ± 3.6 | 875.9 ± 3.6

CCCCCCCCCCCC(=O)OCC(COC(=O)CCCCCCCCCCC)OC(=O)CCCCCCCCCCC [1,2,3-propanetriyl tridodecanoate]
[1], 100 kPa
Settings | mass density [kg/m3]
303.15 K | 905.1 ± 3.7
313.15 K | 899.6 ± 3.7
333.15 K | 886.9 ± 3.6
353.15 K | 870.4 ± 3.5

CCCCCCCCCCCC(=O)OCC(COC(=O)CCCCCCCCCCC)OC(=O)CCCCCCCCCCC [1,2,3-propanetriyl tridodecanoate] + CCCCCCCCO
mass density [kg/m3], [2]
Settings | 293.15 K | 298.15 K | 303.15 K | 313.15 K | 333.15 K | 353.15 K
w1 = 0.019 | 826.7 ± 3.3 | 823.3 ± 3.3 | 819.7 ± 3.3 | 812.8 ± 3.3 | 798.7 ± 3.2 | 784 ± 3.1
w1 = 0.051 | 829.5 ± 3.3 | 826.2 ± 3.3 | 822.5 ± 3.3 | 815.6 ± 3.3 | 801.5 ± 3.2 | 786.8 ± 3.2
w1 = 0.096 | – | – | 826.8 ± 3.3 | 819.7 ± 3.3 | 805.6 ± 3.2 | 790.9 ± 3.2
w1 = 0.149 | – | – | 831 ± 3.3 | 824 ± 3.3 | 809.9 ± 3.3 | 795.2 ± 3.2
w1 = 1 | – | – | 905.1 ± 3.7 | 899.6 ± 3.7 | 886.9 ± 3.6 | 870.4 ± 3.5
